Test results published in patent US10448639B2, “Fungicidal pyrazoles” (FMC CORPORATION, priority 2009, dated 2019).

Key:
[1] = system: Erysiphe graminis f sp. tritici; test: Test J: wheat powdery mildew, preventive spray on wheat seedlings, visual disease rating; conditions: for Test J rating (% disease control) / Test J disease control rating: wheat powdery mildew, 100 = 100% disease control; for Test J disease control rating: sprayed the day before inoculation, 0 = no disease control relative to controls; for pest or weed control at 200 µg/mL: Blumeria graminis, in Triticum aestivum, 192 h, read-out: Test J rating (% disease control)
From the text: General protocol for preparing test suspensions for Tests A-J: the test compounds were first dissolved in acetone in an amount equal to 3% of the final volume and then suspended at the desired concentration (in ppm) in acetone and purified water (50/50 mix by volume) containing 250 ppm of the surfactant Trem® 014 (polyhydric alcohol esters). The resulting test suspensions were then used in Tests A-J. Spraying a 200 ppm test suspension to the point of run-off on the test plants was the equivalent of a rate of 500 g/ha. Unless otherwise indicated, the rating values indicate a 200 ppm test suspension was used. (An asterisk “*” next to the rating value indicates a 40 ppm test suspension was used.)
The test suspension was sprayed to the point of run-off on wheat seedlings. The following day the seedlings were inoculated with a spore dust of Erysiphe graminis f sp. tritici, (the causal agent of wheat powdery mildew) and incubated in a growth chamber at 20° C. for 8 days, after which time visual disease ratings were made.

[2] = system: Puccinia recondita f. sp. tritici; test: Test I: wheat leaf rust, preventive spray on wheat seedlings, visual disease rating; conditions: for Test I rating (% disease control) / Test I disease control rating: wheat leaf rust, 100 = 100% disease control; for Test I disease control rating: sprayed the day before inoculation, 0 = no disease control relative to controls; for pest or weed control at 200 µg/mL: 192 h, read-out: Test I rating (% disease control)
Phytophthora infestans = type: in vivo; conditions: tomato late blight, preventive spray; 100 = 100% disease control, 0 = no control
Rhizoctonia solani = test: Test E: turf brown patch, preventive spray on creeping bent grass (Agrostis sp.) seedlings, disease rating; type: in vivo; conditions: 100 = 100% disease control; for Test E rating (% disease control): preventive spray, 0 = no control; for Test E disease control rating: 0 = no disease control relative to controls
From the text: A dash (-) indicates no test results.

Botrytis cinerea = test: Test B: tomato Botrytis, preventive spray on tomato seedlings, visual disease rating; conditions: for Test B rating (% disease control) / Test B disease control rating: tomato Botrytis, 100 = 100% disease control; for Test B disease control rating: 0 = no disease control relative to controls; for pest or weed control at 200 µg/mL: Botrytis cinerea, in Solanum lycopersicum, 120 h, read-out: Test B rating (% disease control)
Septoria nodorum = test: Test F: Septoria glume blotch, preventive spray on wheat seedlings, visual disease rating; conditions: for Test F rating (% disease control) / Test F disease control rating: 100 = 100% disease control; for Test F disease control rating: 0 = no disease control relative to controls; for pest or weed control at 200 µg/mL: Parastagonospora nodorum, in Triticum aestivum, 192 h, read-out: Test F rating (% disease control)
Alternaria solani = test: Test C: tomato early blight, preventive spray on tomato seedlings, visual disease rating; conditions: for Test C rating (% disease control) / Test C disease control rating: tomato early blight, 100 = 100% disease control; for Test C disease control rating: 0 = no disease control relative to controls; for pest or weed control at 200 µg/mL: Alternaria solani, in Solanum lycopersicum, 168 h, read-out: Test C rating (% disease control)
Septoria tritici = test: Test G: wheat leaf blotch, preventive spray on wheat seedlings, visual disease rating; conditions: for Test G rating (% disease control) / Test G disease control rating: wheat leaf blotch, 100 = 100% disease control; for Test G disease control rating: sprayed the day before inoculation, 0 = no disease control relative to controls; for pest or weed control at 200 µg/mL: Zymoseptoria tritici, in Triticum aestivum, 504 h, read-out: Test G rating (% disease control)
[3] = system: Puccinia recondita f. sp. tritici; test: Test H: wheat leaf rust, curative spray on inoculated wheat seedlings, visual disease rating; conditions: for Test H rating (% disease control): wheat leaf rust, 100 = 100% disease control; for pest or weed control at 200 µg/mL: 144 h, read-out: Test H rating (% disease control)
[4] = preventive spray, 0 = no control
[5] = Septoria glume blotch on wheat, preventive spray, 0 = no control
[6] = 0 = no control relative to controls
[7] = curative, 0 = no control relative to controls
[8] = preventive, 0 = no control relative to controls
[9] = Septoria glume blotch, 0 = no control relative to controls

Cc1nn(C)c(Nc2ccc(F)cc2)c1-c1ccc(F)cc1Cl [compound 11]
Test J rating (% disease control) [1, 4]: 100% | Test I rating (% disease control) [2, 4]: 99% | Test D rating (% disease control) (Phytophthora infestans): 0% | Test E rating (% disease control) (Rhizoctonia solani): 99% | Test B rating (% disease control) (Botrytis cinerea; [4]): 99% | Test F rating (% disease control) (Septoria nodorum; [5]): 0% | Test C rating (% disease control) (Alternaria solani; [4]): 99% | Test G rating (% disease control) (Septoria tritici; [4]): 100%

Cc1nn(C)c(Nc2cc(F)cc(F)c2F)c1-c1ccc(Cl)cc1 [compound 10]
Test J rating (% disease control) [1, 4]: 0% | Test I rating (% disease control) [2, 4]: 0% | Test D rating (% disease control) (Phytophthora infestans): 0% | Test E rating (% disease control) (Rhizoctonia solani): 0% | Test B rating (% disease control) (Botrytis cinerea; [4]): 47% | Test F rating (% disease control) (Septoria nodorum; [5]): 0% | Test C rating (% disease control) (Alternaria solani; [4]): 0% | Test G rating (% disease control) (Septoria tritici; [4]): 0%

COCN(c1c(F)cc(F)cc1F)c1c(-c2ccc(F)cc2Cl)c(C)nn1C [compound 309]
Test J disease control rating [1]: 99% | Test I disease control rating [2]: 0% | Test E disease control rating (Rhizoctonia solani): 92% | Test B disease control rating (Botrytis cinerea): 97% | Test F disease control rating (Septoria nodorum; Septoria glume blotch on wheat): 60% | Test C disease control rating (Alternaria solani): 61% | Test G disease control rating (Septoria tritici): 100%

Cc1nn(C)c(N(c2c(F)cc(F)cc2F)S(C)(=O)=O)c1-c1ccc(F)cc1Cl [compound 304]
Test J disease control rating [1]: 0% | Test I disease control rating [2]: 0% | Test E disease control rating (Rhizoctonia solani): 0% | Test B disease control rating (Botrytis cinerea): 0% | Test F disease control rating (Septoria nodorum; Septoria glume blotch on wheat): 0% | Test C disease control rating (Alternaria solani): 0% | Test G disease control rating (Septoria tritici): 16%

Cc1nn(C)c(Nc2ccc(F)cc2F)c1-c1ccc(F)cc1Cl [compound 13]
Test J rating (% disease control) [1, 4]: 99% | Test I rating (% disease control) [2, 4]: 100% | Test D rating (% disease control) (Phytophthora infestans): 0% | Test E rating (% disease control) (Rhizoctonia solani): 98% | Test B rating (% disease control) (Botrytis cinerea; [4]): 99% | Test F rating (% disease control) (Septoria nodorum; [5]): 64% | Test C rating (% disease control) (Alternaria solani; [4]): 100% | Test G rating (% disease control) (Septoria tritici; [4]): 100%

Cc1nn(C)c(Nc2cc(F)cc(F)c2)c1-c1ccc(F)cc1Cl [compound 9]
Test J rating (% disease control) [1, 4]: 97% | Test I rating (% disease control) [2, 4]: 98% | Test D rating (% disease control) (Phytophthora infestans): 0% | Test E rating (% disease control) (Rhizoctonia solani): 55% | Test B rating (% disease control) (Botrytis cinerea; [4]): 99% | Test F rating (% disease control) (Septoria nodorum; [5]): 0% | Test C rating (% disease control) (Alternaria solani; [4]): 0% | Test G rating (% disease control) (Septoria tritici; [4]): 100%

COc1cc(F)c(-c2c(C)nn(C)c2Nc2ccc(C#N)cc2Cl)c(F)c1 [compound 117]
Test J rating (% disease control) [1, 4]: 97% | Test H rating (% disease control) ([3]; curative spray, 0 = no control): 11% | Test I rating (% disease control) [2, 4]: 98% | Test B rating (% disease control) (Botrytis cinerea; [4]): 99% | Test F rating (% disease control) (Septoria nodorum; [5]): 82% | Test C rating (% disease control) (Alternaria solani; [4]): 97% | Test G rating (% disease control) (Septoria tritici; [4]): 100%

COc1cc(F)c(Nc2c(-c3c(F)cc(OC)cc3F)c(C)nn2C)c(F)c1 [compound 83]
Test J rating (% disease control) [1, 4]: 94% | Test H rating (% disease control) ([3]; curative spray, 0 = no control): 99% | Test I rating (% disease control) [2, 4]: 96% | Test B rating (% disease control) (Botrytis cinerea; [4]): 100% | Test F rating (% disease control) (Septoria nodorum; [5]): 89% | Test C rating (% disease control) (Alternaria solani; [4]): 100% | Test G rating (% disease control) (Septoria tritici; [4]): 99%

COc1cc(F)c(-c2c(C)nn(C)c2Nc2ccc(F)cc2Cl)c(F)c1 [Compound 87, N-(2-chloro-4-fluorophenyl)-4-(2,6-difluoro-4-methoxyphenyl)-1,3-dimethyl-1H-pyrazol-5-amine]
pest or weed control at 200 µg/mL [1]: 100% | pest or weed control at 200 µg/mL [3]: 85% | pest or weed control at 200 µg/mL [2]: 99% | pest or weed control at 200 µg/mL (Botrytis cinerea): 100% | pest or weed control at 200 µg/mL (Septoria nodorum): 95% | pest or weed control at 200 µg/mL (Alternaria solani): 100% | pest or weed control at 200 µg/mL (Septoria tritici): 98%

Cc1cc(Oc2c(-c3c(F)cc(F)cc3F)c(C)nn2C)ccc1[N+](=O)[O-] [compound 135]
Test J rating (% disease control) [1, 4]: 95% | Test H rating (% disease control) ([3]; curative spray, 0 = no control): 16% | Test I rating (% disease control) [2, 4]: 74% | Test B rating (% disease control) (Botrytis cinerea; [4]): 0% | Test F rating (% disease control) (Septoria nodorum; [5]): 0% | Test C rating (% disease control) (Alternaria solani; [4]): 0% | Test G rating (% disease control) (Septoria tritici; [4]): 97%

COc1ccc(-c2c(C)nn(C)c2Nc2cc(F)ccc2F)c(Cl)c1 [compound 176]
Test J rating (% disease control) [1, 6]: 100% | Test H rating (% disease control) [3, 7]: 0% | Test I rating (% disease control) [2, 8]: 68% | Test B rating (% disease control) (Botrytis cinerea; [6]): 100% | Test F rating (% disease control) (Septoria nodorum; [9]): 0% | Test C rating (% disease control) (Alternaria solani; [6]): 71% | Test G rating (% disease control) (Septoria tritici; [6]): 96%

Cc1nn(C)c(Nc2ccc(F)cc2F)c1-c1ccccc1C(F)(F)F [compound 238]
Test J rating (% disease control) [1, 6]: 43% | Test H rating (% disease control) [3, 7]: 53% | Test I rating (% disease control) [2, 8]: 9% | Test B rating (% disease control) (Botrytis cinerea; [6]): 99% | Test F rating (% disease control) (Septoria nodorum; [9]): 0% | Test C rating (% disease control) (Alternaria solani; [6]): 0% | Test G rating (% disease control) (Septoria tritici; [6]): 0%

Cc1nn(C)c(Nc2ccc(F)cc2Cl)c1-c1ccccc1C(F)(F)F [compound 236]
Test J rating (% disease control) [1, 6]: 97% | Test H rating (% disease control) [3, 7]: 0% | Test I rating (% disease control) [2, 8]: 68% | Test B rating (% disease control) (Botrytis cinerea; [6]): 97% | Test F rating (% disease control) (Septoria nodorum; [9]): 0% | Test C rating (% disease control) (Alternaria solani; [6]): 0% | Test G rating (% disease control) (Septoria tritici; [6]): 96%

Cc1nn(C)c(Nc2ccccc2F)c1-c1ccc(F)cc1Cl [compound 12]
Test J rating (% disease control) [1, 4]: 100% | Test I rating (% disease control) [2, 4]: 99% | Test D rating (% disease control) (Phytophthora infestans): 0% | Test E rating (% disease control) (Rhizoctonia solani): 99% | Test B rating (% disease control) (Botrytis cinerea; [4]): 99% | Test F rating (% disease control) (Septoria nodorum; [5]): 0% | Test C rating (% disease control) (Alternaria solani; [4]): 93% | Test G rating (% disease control) (Septoria tritici; [4]): 100%

COc1ccc(Nc2c(-c3c(F)cccc3F)c(C)nn2C)c(Cl)c1 [compound 201]
Test J rating (% disease control) [1, 6]: 99% | Test H rating (% disease control) [3, 7]: 18% | Test I rating (% disease control) [2, 8]: 97% | Test B rating (% disease control) (Botrytis cinerea; [6]): 99% | Test F rating (% disease control) (Septoria nodorum; [9]): 20% | Test C rating (% disease control) (Alternaria solani; [6]): 97% | Test G rating (% disease control) (Septoria tritici; [6]): 100%

Cc1nn(C)c(Nc2ccc(F)cc2Br)c1-c1ccc(F)cc1Cl [Compound 265, N-(2-bromo-4-fluorophenyl)-4-(2-chloro-4-fluorophenyl)-1,3-dimethyl-1H-pyrazol-5-amine]
pest or weed control at 200 µg/mL [1]: 100% | pest or weed control at 200 µg/mL [3]: 90% | pest or weed control at 200 µg/mL [2]: 100% | pest or weed control at 200 µg/mL (Botrytis cinerea): 100% | pest or weed control at 200 µg/mL (Septoria nodorum): 78% | pest or weed control at 200 µg/mL (Alternaria solani): 99% | pest or weed control at 200 µg/mL (Septoria tritici): 100%

COc1cc(F)c(-c2c(C)nn(C)c2Nc2ccc(F)cc2F)c(F)c1 [Compound 23, 4-(2,6-difluoro-4-methoxyphenyl)-N-(2,4-difluorophenyl)-1,3-dimethyl-1H-pyrazol-5-amine]
pest or weed control at 200 µg/mL [1]: 100% | pest or weed control at 200 µg/mL [3]: 92% | pest or weed control at 200 µg/mL [2]: 100% | pest or weed control at 200 µg/mL (Botrytis cinerea): 98% | pest or weed control at 200 µg/mL (Septoria nodorum): 99% | pest or weed control at 200 µg/mL (Alternaria solani): 100% | pest or weed control at 200 µg/mL (Septoria tritici): 93%

Cc1nn(C)c(Nc2cccc(F)c2F)c1-c1c(F)cc(C#N)cc1F [compound 145]
Test J rating (% disease control) [1, 4]: 100% | Test H rating (% disease control) ([3]; curative spray, 0 = no control): 88% | Test I rating (% disease control) [2, 4]: 100% | Test B rating (% disease control) (Botrytis cinerea; [4]): 96% | Test F rating (% disease control) (Septoria nodorum; [5]): 100% | Test C rating (% disease control) (Alternaria solani; [4]): 98% | Test G rating (% disease control) (Septoria tritici; [4]): 100%

Cc1nn(C)c(Nc2cccc(Cl)c2Cl)c1-c1ccc(F)cc1F [compound 231]
Test J rating (% disease control) [1, 6]: 100% | Test H rating (% disease control) [3, 7]: 0% | Test I rating (% disease control) [2, 8]: 86% | Test B rating (% disease control) (Botrytis cinerea; [6]): 98% | Test F rating (% disease control) (Septoria nodorum; [9]): 0% | Test C rating (% disease control) (Alternaria solani; [6]): 34% | Test G rating (% disease control) (Septoria tritici; [6]): 100%
